According to ChEMBL document CHEMBL1201862, “PubChem BioAssay data set” (2004):
Calls of active or inactive are those of the source.

Assays:
Cytochrome P450 3A4 = Cytochrome P450 3A4 (Homo sapiens, UniProt P08684);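 further: CYP3A4 tested as one member of a cytochrome P450 panel screen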
Cytochrome P450 2C19 = Cytochrome P450 2C19 (Homo sapiens, UniProt P33261); experiment: Cytochrome panel assay with activity outcomes. Panel member name: p450-cyp2c19 Compounds with AC50 equal or less than 10 uM are considered active; type: functional; conditions: read-out: AC50
Sequence of Cytochrome P450 2C19 (P33261 whole entry): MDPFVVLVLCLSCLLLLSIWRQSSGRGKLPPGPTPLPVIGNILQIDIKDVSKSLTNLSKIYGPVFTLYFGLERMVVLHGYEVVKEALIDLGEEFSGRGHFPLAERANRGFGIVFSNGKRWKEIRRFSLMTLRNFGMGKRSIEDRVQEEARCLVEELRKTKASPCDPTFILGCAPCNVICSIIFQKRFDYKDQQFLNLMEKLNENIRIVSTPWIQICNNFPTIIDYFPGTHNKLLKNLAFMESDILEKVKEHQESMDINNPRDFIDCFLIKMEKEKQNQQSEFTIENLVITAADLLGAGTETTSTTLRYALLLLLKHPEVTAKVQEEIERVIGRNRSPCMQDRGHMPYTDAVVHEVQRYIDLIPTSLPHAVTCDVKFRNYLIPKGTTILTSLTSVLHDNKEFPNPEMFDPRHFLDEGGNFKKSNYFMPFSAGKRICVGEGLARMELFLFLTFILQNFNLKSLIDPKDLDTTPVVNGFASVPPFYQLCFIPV

Cytochrome P450 2D6 = Cytochrome P450 2D6 (Homo sapiens, UniProt P10635);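 further: CYP2D6 member of a cytochrome P450 panel assay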
Sequence of Cytochrome P450 2D6 (P10635 whole entry): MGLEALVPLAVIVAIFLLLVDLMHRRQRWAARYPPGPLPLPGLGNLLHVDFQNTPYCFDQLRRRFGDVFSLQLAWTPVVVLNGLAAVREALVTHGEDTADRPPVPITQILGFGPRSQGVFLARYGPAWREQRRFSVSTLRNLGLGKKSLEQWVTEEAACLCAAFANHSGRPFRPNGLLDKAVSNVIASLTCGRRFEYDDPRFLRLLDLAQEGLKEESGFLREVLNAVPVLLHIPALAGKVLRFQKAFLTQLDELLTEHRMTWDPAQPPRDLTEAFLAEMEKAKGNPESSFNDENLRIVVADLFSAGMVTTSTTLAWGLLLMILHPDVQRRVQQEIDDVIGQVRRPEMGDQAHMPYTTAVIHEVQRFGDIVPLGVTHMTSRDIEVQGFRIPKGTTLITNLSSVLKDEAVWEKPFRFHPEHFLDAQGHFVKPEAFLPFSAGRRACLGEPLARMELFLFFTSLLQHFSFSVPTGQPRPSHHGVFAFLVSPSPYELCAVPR

[1] = fluconazole-exposed Candida albicans growth modulators – fluorescence, retest, confirmation (AID 2467); type: functional, cell-based
CAAX prenyl protease 2 [2] = biological target: T1, CAAX prenyl protease 2 (Homo sapiens, UniProt Q9Y256); experiment: inhibition of Ras-converting CAAX protease Rce1 – biochemical, yeast membranes, quenched-peptide fluorescence, cherry-pick, dose response (AID 588849)
T1 sequence (Q9Y256 whole entry): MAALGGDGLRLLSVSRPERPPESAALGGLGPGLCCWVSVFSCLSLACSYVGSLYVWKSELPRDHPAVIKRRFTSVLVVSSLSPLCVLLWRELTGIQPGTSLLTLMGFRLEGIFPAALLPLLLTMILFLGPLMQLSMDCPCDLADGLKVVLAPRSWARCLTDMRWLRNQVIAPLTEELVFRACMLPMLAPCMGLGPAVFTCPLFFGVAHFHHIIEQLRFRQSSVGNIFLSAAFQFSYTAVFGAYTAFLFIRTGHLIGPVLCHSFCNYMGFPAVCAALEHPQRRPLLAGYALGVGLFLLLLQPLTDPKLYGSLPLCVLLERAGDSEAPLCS

[3] = NIH-3T3 fibroblast cytotoxicity, dose response, cytotoxicity control, cell-based, fluorescence, Alamar Blue, secondary assay (AID 2327); type: functional;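 further: NIH-3T3 mouse fibroblasts cultured with fluconazole at 8 µg/mL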
Protein skinhead-1 = biological target: T2, Protein skinhead-1 (Caenorhabditis elegans, UniProt P34707); type: functional
T2 sequence (P34707 whole entry): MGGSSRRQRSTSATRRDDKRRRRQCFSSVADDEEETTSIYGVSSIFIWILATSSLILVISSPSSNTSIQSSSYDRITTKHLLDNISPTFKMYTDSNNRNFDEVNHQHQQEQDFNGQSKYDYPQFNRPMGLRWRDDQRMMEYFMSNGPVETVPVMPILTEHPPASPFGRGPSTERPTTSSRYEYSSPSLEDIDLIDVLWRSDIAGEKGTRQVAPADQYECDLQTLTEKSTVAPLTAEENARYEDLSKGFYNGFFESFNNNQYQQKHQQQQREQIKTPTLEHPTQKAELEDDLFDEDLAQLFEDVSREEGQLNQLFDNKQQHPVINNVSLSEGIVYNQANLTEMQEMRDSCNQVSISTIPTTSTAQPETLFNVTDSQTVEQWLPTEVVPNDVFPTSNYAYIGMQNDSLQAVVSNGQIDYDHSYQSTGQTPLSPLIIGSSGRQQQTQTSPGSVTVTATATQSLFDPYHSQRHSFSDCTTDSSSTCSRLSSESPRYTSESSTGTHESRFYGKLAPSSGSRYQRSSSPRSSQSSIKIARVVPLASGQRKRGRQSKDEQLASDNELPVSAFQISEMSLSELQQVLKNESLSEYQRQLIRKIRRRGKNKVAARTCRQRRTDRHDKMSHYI

[4] = biological target: T3, Serine/threonine-protein phosphatase (Candida dubliniensis (strain CD36 / CBS 7987 / NCPF 3949 / NRRLY-17841) (Yeast), UniProt B9W6M3); experiment: Fluorescence Cell-Based Secondary Assay to Identify Inhibitors of Calcineurin. [Related pubchem assays (depositor defined):AID1979, AID2007]; type: functional
T3 sequence (B9W6M3 whole entry): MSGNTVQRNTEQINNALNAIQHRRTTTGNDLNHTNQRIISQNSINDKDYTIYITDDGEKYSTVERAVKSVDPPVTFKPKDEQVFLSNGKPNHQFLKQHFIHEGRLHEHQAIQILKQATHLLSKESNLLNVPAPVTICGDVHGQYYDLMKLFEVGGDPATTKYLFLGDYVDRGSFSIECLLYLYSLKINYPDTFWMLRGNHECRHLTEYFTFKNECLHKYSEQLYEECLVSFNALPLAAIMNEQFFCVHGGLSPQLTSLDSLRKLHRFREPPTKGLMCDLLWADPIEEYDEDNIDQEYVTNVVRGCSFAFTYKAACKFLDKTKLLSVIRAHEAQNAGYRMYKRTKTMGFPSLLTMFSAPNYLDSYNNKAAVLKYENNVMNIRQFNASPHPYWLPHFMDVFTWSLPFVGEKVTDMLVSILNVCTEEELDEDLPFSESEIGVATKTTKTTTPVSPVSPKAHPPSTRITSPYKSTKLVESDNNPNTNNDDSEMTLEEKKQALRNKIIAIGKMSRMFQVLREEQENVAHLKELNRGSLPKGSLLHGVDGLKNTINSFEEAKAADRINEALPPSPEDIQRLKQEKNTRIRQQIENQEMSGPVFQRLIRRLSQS

[5] = biological target: T3, Serine/threonine-protein phosphatase; experiment: blockers of CaCl2-induced CDRE-lacZ signaling – S. cerevisiae, luminescence, secondary, dose response (AID 2388); type: functional, cell-based;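 further: yeast reporter cells carrying a calcineurin-responsive lacZ construct stimulated with calcium chloride; luminescent beta-galactosidase reporter signal in whole cells rather than isolated phosphatase activity; potency for inhibition where a drop in reporter signal means calcineurin blockade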
[6] = biological target: ATP-dependent molecular chaperone HSP82 (Candida albicans (strain WO-1) (Yeast), UniProt C4YTQ8); experiment: steroid-induced GRE reporter decrease in yeast – S. cerevisiae, luminescence, Hsp90 inhibitor project, dose response (AID 2400); type: functional, cell-based;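 further: beta-galactosidase luminescence from glucocorticoid response element reporter as proxy for Hsp90 function; inhibitor potency where signal loss means Hsp90 inhibition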
Sequence of ATP-dependent molecular chaperone HSP82 (C4YTQ8 whole entry): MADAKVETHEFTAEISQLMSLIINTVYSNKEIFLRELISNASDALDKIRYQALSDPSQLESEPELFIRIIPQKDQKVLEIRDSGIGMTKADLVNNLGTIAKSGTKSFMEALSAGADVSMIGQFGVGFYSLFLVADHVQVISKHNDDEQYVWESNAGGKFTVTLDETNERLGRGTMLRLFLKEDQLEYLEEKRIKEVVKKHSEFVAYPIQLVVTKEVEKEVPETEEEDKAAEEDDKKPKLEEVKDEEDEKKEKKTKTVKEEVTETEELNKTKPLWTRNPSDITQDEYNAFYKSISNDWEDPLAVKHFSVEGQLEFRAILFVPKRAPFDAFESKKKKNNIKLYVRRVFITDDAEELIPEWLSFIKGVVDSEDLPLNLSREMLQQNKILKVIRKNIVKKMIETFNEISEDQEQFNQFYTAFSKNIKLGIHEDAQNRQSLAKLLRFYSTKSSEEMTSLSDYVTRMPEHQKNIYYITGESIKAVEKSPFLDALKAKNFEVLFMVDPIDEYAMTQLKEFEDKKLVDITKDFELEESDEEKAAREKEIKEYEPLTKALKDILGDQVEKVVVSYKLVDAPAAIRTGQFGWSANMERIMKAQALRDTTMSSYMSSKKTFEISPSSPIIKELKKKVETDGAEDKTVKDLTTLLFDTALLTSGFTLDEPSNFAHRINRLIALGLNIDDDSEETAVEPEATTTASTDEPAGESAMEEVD

HEK293 [7] = experiment: inhibition of NOD1-driven NF-kB reporter – cell-based, luminescence, uHTS, primary screen (AID 1578); type: functional; conditions: Homo sapiens
[8] = test system: Streptococcus sp. 'group A'; experiment: Streptococcus pyogenes SK(-)GAS viability under kanamycin – luminescence, BacTiterGlo, confirmation, counter-screen for streptokinase expression inhibitor project, dose response (AID 1900); type: functional, organism-based
HEK293 [9] = experiment: cells; type: functional, cell-based; conditions: Homo sapiens
Streptokinase A = biological target: T4, Streptokinase A (Streptococcus pyogenes serotype M1, UniProt P10520); experiment: viability-normalized secreted streptokinase activity reduction – plasminogen activation absorbance, OD405, dose response (AID 1914); type: functional, Streptococcus pyogenes M1 GAS;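 further: secreted streptokinase activity via plasminogen activation per viability signal from cell pellet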
T4 sequence (P10520 whole entry): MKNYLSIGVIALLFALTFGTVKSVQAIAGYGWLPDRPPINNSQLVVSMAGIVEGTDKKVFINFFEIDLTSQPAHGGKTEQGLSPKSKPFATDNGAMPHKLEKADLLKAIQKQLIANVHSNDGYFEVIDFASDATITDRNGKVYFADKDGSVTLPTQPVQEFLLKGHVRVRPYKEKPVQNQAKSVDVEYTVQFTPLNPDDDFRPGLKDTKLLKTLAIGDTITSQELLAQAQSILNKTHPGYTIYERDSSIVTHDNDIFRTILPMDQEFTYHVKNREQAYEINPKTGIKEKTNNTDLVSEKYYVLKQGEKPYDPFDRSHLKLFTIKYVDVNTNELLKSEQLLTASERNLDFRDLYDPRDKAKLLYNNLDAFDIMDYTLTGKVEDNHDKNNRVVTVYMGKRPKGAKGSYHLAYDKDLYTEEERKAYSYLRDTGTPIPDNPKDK

HEK293 [10] = experiment: cells; type: functional, cell-based; conditions: Homo sapiens; remark: listed apart in the source
HEK293 [11] = experiment: cells; type: functional, cell-based; conditions: Homo sapiens; remark: listed apart in the source
[12] = biological target: Nucleotide-binding oligomerization domain-containing protein 2 (Homo sapiens, UniProt Q9HC29); experiment: inhibition of NOD2-driven NF-kB reporter – cell-based, luminescence, uHTS, HEK293 (AID 1566); type: functional
Sequence of Nucleotide-binding oligomerization domain-containing protein 2 (Q9HC29 whole entry, the tested form may be a part): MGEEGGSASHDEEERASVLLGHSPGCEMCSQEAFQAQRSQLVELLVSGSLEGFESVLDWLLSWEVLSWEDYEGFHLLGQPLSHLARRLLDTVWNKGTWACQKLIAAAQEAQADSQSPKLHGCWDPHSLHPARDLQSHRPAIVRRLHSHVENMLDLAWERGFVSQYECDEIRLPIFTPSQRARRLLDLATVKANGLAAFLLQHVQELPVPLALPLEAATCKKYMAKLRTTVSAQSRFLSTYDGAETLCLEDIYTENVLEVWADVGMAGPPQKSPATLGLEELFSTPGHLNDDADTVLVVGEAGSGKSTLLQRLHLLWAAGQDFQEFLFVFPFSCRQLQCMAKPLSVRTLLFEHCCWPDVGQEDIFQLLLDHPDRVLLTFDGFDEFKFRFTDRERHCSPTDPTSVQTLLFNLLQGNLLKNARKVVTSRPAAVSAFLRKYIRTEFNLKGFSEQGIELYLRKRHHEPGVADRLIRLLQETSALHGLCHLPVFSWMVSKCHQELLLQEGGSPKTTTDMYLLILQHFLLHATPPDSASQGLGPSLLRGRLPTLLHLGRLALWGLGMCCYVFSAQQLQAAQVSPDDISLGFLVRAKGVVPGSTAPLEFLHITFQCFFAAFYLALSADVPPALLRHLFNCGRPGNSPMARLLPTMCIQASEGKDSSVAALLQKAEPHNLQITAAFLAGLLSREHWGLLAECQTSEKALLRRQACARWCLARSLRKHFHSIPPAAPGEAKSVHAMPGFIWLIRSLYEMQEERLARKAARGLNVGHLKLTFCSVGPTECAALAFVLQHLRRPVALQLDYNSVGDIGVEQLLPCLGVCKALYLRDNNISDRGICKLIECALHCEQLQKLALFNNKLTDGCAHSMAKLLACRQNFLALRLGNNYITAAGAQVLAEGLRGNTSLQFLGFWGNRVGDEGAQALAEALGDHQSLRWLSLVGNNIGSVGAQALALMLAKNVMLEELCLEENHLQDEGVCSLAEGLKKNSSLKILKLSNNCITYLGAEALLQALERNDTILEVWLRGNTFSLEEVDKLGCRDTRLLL

Streptococcus = experiment: GAS UMAA2166 growth inhibition – luminescence, BacTiterGlo, counter-screen for streptokinase expression inhibitor project, dose response (AID 1915); type: functional, organism-based;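 further: potency for reduction of bacterial viability or growth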
HEK293 [13] = experiment: NOD2 signaling inhibitors in MDP-stimulated cells, cell-based, uHTS, luminescence (AID 2001); type: functional; conditions: Homo sapiens
[14] = biological target: T5, Aryl hydrocarbon receptor (Homo sapiens, UniProt P35869); experiment: Luminescence-based cell-based high throughput dose response assay for activators of the Aryl Hydrocarbon Receptor (AHR). [Related pubchem assays: 2796 (Primary screen (AHR activators in singlicate)), 2845 (Confirmation screen (AHR activators in triplicate)), 434939 (Counterscreen (PXR activators in triplicate)), 2804 (Summary (AHR activators))]; type: ADME
T5 sequence (P35869 whole entry): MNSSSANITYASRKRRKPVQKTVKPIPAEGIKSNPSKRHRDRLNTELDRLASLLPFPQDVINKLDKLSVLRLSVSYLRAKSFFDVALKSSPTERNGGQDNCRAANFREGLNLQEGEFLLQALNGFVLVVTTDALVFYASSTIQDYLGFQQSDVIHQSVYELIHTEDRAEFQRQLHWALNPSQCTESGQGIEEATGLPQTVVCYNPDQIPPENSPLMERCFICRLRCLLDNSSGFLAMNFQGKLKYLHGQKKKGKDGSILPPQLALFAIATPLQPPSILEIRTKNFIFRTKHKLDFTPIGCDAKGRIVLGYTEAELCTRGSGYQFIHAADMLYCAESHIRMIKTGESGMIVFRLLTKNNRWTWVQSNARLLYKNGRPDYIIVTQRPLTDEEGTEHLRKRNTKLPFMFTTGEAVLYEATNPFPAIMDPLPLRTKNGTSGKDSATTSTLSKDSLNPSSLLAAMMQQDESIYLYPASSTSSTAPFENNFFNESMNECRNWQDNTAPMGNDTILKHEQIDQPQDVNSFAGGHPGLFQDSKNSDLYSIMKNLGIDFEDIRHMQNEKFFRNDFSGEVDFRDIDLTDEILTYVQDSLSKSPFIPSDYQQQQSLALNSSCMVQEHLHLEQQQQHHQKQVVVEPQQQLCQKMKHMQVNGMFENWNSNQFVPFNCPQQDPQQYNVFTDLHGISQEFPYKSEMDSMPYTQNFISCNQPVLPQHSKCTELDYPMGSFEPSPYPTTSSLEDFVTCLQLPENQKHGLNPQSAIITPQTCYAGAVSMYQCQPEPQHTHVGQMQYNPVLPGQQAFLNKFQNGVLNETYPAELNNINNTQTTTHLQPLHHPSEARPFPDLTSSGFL

CAAX prenyl protease 2 [15] = biological target: T6, CAAX prenyl protease 2 (Saccharomyces cerevisiae S288c, UniProt Q03530); type: biochemical
T6 sequence (Q03530 whole entry): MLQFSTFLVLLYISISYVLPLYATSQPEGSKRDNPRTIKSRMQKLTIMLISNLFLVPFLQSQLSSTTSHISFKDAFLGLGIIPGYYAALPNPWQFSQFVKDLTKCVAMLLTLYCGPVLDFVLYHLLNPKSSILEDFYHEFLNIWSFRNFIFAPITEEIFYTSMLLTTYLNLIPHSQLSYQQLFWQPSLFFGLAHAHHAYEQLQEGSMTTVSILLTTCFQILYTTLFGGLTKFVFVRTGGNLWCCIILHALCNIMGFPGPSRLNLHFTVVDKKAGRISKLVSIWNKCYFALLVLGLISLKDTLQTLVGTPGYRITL

CAAX prenyl protease 1 = CAAX prenyl protease 1 (Saccharomyces cerevisiae S288c, UniProt P47154); experiment: yeast CAAX protease Ste24 inhibition – biochemical, S. cerevisiae, plate reader, cherry-pick, dose response (AID 488815)
Sequence of CAAX prenyl protease 1 (P47154 whole entry): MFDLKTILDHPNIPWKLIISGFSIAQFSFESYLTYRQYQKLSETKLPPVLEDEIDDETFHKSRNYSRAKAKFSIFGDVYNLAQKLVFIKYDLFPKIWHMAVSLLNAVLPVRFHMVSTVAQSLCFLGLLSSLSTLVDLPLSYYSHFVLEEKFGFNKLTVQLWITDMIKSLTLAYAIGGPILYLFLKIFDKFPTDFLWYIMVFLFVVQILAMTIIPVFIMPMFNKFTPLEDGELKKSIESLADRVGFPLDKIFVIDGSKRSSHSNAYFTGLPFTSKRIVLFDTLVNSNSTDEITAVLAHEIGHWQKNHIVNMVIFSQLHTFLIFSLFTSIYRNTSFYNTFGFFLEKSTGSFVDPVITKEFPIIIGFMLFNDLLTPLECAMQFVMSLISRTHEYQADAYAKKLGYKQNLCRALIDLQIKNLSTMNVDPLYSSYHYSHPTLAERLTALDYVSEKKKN

[16] = biological target: DNA repair and recombination protein RAD54-like (Homo sapiens, UniProt Q92698); experiment: RAD54 Holliday junction migration blockers – biochemical, fluorescence, cherry-picked samples, dose series, confirmation (AID 651657); type: functional
Sequence of DNA repair and recombination protein RAD54-like (Q92698 whole entry): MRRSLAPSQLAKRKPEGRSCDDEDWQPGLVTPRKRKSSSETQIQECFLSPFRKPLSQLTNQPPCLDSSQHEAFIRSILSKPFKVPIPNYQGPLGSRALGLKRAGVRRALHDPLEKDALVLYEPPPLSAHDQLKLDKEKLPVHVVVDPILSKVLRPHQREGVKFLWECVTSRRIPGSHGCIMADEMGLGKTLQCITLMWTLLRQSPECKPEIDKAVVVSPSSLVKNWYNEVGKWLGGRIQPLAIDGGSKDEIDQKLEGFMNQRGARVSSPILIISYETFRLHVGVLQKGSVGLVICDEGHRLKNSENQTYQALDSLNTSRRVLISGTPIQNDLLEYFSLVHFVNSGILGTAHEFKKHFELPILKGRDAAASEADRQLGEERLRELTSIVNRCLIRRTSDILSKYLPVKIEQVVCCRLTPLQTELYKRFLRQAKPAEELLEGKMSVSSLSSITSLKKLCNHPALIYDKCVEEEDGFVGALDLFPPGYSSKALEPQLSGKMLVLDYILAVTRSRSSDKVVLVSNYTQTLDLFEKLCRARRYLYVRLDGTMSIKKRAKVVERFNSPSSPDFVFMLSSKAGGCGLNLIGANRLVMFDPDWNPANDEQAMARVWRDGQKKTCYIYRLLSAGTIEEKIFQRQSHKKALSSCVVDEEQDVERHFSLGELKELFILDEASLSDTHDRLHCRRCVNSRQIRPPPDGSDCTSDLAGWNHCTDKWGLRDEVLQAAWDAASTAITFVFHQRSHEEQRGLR

[17] = restored growth of temperature-sensitive Burl-1 yeast – whole organism, S. cerevisiae, Burl-1 ts mutant, luminescence, counter-screen for SUMOylation pathway inhibitor project, dose response (AID 463199); type: functional
[18] = biological target: UDP-galactopyranose mutase (Mycobacterium tuberculosis, UniProt P9WIQ1); experiment: Inhibitors of Mycobacterium tuberculosis UDP-galactopyranose mutase (UGM) enzyme Measured in Biochemical System Using Plate Reader - 2105-02_Inhibitor_Dose_CherryPick_Activity. [Related pubchem assays (depositor defined):AID504439]
Sequence of UDP-galactopyranose mutase (P9WIQ1 whole entry): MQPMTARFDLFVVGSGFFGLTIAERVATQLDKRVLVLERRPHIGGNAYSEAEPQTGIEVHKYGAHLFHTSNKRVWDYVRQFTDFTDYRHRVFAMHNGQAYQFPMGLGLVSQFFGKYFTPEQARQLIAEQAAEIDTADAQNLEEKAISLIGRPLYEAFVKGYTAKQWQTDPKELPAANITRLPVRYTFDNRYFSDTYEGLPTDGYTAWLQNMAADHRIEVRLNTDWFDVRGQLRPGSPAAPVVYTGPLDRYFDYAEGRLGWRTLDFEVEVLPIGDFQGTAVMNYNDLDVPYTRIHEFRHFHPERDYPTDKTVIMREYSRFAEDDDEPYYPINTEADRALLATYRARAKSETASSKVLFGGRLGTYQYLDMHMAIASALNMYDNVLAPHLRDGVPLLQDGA

Sequence of Cytochrome P450 3A4 (P08684 whole entry): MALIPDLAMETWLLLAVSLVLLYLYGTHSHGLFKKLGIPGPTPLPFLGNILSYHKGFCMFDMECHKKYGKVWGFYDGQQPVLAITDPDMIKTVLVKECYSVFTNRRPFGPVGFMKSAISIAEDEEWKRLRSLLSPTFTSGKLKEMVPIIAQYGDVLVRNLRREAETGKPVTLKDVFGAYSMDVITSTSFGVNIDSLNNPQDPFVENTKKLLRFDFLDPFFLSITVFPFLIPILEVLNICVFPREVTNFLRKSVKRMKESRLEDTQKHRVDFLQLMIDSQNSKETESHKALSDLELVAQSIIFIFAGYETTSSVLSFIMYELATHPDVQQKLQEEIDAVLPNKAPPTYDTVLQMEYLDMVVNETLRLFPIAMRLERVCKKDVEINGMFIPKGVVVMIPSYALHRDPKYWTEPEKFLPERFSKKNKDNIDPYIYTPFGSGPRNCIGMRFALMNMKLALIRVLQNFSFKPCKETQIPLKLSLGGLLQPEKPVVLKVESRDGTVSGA

For `CCc1ccc(C(CC(=O)c2ccc(Cl)cc2)C(=O)O)cc1` (stereo unspecified), the AC50 (Cytochrome P450 3A4) was “inconclusive”, the AC50 (Cytochrome P450 2C19) was 0.00562 µM (inconclusive) and the AC50 (Cytochrome P450 2D6) was “inconclusive”.
With `O=C(Nc1sc2c(c1C(=O)c1ccc(Cl)cc1)CCCC2)c1cccnc1` the EC50 [1] was 0.18 µM (active), the AC50 (CAAX prenyl protease 2 [2]) was 24.3 µM (active) and the EC50 [3] was > 160 µM (inactive). For the same molecule, the IC50 (Protein skinhead-1) was > 100 µM (inactive), the EC50 [4] was 27.6 µM (inconclusive) and the EC50 [5] was > 180 µM (inactive). The EC50 [6] was 28.2 µM (active).
In the case of `CCCCCCc1cc2cc(C(=O)OCC)c(=O)oc2cc1O`, the EC50 (HEK293 [7]) is reported as 5.81 µM (active), the EC50 [8] is reported as 10.8 µM (active) and the IC50 (HEK293 [9]) is reported as > 20 µM (inactive). The EC50 (Streptokinase A) was 12.8 µM (active), the IC50 (HEK293 [10]) was 15.8 µM (active) and the IC50 (HEK293 [11]) was 7.71 µM (active). The EC50 [12] was 12.6 µM (active), the EC50 (Streptococcus) was > 150 µM (not active) and the IC50 (HEK293 [13]) was 6.52 µM (inactive).
With `CN1CCN(CCCNC(=O)c2cc3c(-c4ccc(Cl)cc4)nn(C)c3s2)CC1` the AC50 (CAAX prenyl protease 2 [2]) was 15.8 µM (active), the EC50 [14] was 0.483 µM (active) and the AC50 (CAAX prenyl protease 2 [15]) was 7.05 µM (active). The AC50 (CAAX prenyl protease 1) was 6.07 µM (active) and the AC50 [16] was 33.6 µM (active).
For `OCCc1c[nH]c2cc(F)ccc12`, the AC50 [17] was 73.3 µM (active).
In the case of `Cc1cc(C)c(S(=O)(=O)Nc2ccc(C(=O)O)cc2)cc1S(=O)(=O)Nc1ccc(C(=O)O)cc1`, the AC50 [18] is reported as 423 µM (active).
